Measurements from PMC6327951 (The Journal of organic chemistry, 2018).
Entries after “also recorded” stand apart in the source; their conditions may differ. Where two headings read alike, the source gives them in different places.

How the values were obtained:
SpNanC [1] = biological target: T1, SpNanC (Streptococcus pneumoniae, UniProt A0A0H2UQE4); conditions: cited from earlier work
SpNanB [2] = biological target: T2, SpNanB (Streptococcus pneumoniae serotype 4, UniProt Q54727); conditions: cited from earlier work
T2 sequence (Q54727 30-697): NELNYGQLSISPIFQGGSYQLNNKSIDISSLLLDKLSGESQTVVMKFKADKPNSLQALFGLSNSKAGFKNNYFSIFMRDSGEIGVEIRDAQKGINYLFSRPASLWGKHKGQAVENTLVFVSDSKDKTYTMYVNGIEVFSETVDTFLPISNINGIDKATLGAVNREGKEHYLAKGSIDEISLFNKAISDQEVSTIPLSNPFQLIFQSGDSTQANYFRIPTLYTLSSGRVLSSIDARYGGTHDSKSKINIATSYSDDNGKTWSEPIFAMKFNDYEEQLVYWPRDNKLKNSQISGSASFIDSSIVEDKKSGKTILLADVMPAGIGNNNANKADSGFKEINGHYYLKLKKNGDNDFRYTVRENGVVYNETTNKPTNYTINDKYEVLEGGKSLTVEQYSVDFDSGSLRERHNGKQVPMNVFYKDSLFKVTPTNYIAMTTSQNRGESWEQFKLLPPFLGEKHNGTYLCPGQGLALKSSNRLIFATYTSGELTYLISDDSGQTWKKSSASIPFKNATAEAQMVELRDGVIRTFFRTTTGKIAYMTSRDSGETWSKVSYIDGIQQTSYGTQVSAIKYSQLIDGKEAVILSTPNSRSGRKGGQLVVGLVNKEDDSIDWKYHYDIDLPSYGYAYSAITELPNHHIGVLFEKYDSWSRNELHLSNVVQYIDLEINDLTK

IT-sialidase RgNanH = conditions: cited from earlier work
SpNanA [3] = biological target: T3, SpNanA (Streptococcus pneumoniae, UniProt P62575); conditions: cited from earlier work
T3 sequence (P62575 54-1035): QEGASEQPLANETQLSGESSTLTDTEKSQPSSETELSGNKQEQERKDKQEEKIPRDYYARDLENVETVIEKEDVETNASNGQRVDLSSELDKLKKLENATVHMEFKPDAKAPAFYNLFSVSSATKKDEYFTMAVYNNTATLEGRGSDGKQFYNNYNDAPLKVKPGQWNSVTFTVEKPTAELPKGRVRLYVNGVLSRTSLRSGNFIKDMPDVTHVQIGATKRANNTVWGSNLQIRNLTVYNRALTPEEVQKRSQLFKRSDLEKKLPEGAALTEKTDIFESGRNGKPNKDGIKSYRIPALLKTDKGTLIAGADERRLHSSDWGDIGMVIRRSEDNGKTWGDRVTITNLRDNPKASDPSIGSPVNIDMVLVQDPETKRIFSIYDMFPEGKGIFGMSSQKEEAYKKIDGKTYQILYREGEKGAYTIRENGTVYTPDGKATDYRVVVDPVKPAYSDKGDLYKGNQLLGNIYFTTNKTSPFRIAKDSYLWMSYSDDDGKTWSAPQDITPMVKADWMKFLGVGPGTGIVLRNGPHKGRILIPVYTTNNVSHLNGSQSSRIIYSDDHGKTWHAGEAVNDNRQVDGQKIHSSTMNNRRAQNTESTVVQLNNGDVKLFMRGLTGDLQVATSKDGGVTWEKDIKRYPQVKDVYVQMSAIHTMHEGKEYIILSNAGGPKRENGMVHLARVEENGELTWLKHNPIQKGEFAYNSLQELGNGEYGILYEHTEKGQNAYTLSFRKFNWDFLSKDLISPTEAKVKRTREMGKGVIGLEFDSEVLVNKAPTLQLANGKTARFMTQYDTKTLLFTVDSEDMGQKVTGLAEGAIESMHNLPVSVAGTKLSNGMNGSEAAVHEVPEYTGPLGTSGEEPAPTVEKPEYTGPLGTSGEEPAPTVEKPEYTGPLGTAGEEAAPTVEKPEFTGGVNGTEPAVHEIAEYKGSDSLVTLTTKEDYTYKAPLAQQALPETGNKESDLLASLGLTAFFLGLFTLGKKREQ

SpNanB [4] = biological target: T2, SpNanB; experiment: SpNanB-catalyzed hydrolysis assay; assay type: biochemical; conditions: 10 mM compound, SpNanB 1 mg/mL, NaOAc pH 6.0 or Tris-HCl pH 7.0, 24 h
[5] = tested on: SpNanA, SpNanB, SpNanC, PmST1, BiNanH2, AuSialidase, CpNanI, VcSialidase, hNEU2; experiment: Sialidase inhibition assay at 1 mM, whole panel of sialidases tested; assay type: biochemical; conditions: inhibitor 1 mM
SpNanA [6] = biological target: T3, SpNanA; experiment: Sialidase inhibition assay, 384-well colorimetric, Neu5Acα2–3GalβpNP substrate; assay type: biochemical; conditions: inhibitor 1 mM
SpNanC [7] = biological target: T1, SpNanC; experiment: as above; assay type: biochemical
SpNanB [8] = biological target: T2, SpNanB; experiment: as above; assay type: biochemical; conditions: for Inhibitory activity against SpNanB: inhibitor 1 mM
AuSialidase = AuSialidase (Paenarthrobacter ureafaciens, UniProt Q5W7Q2); experiment: as above; assay type: biochemical, Arthrobacter ureafaciens; conditions: inhibitor 1 mM
VcSialidase = VcSialidase (Vibrio cholerae serotype O1, UniProt P0C6E9); experiment: as above; assay type: biochemical
Chain of VcSialidase (P0C6E9 25-781): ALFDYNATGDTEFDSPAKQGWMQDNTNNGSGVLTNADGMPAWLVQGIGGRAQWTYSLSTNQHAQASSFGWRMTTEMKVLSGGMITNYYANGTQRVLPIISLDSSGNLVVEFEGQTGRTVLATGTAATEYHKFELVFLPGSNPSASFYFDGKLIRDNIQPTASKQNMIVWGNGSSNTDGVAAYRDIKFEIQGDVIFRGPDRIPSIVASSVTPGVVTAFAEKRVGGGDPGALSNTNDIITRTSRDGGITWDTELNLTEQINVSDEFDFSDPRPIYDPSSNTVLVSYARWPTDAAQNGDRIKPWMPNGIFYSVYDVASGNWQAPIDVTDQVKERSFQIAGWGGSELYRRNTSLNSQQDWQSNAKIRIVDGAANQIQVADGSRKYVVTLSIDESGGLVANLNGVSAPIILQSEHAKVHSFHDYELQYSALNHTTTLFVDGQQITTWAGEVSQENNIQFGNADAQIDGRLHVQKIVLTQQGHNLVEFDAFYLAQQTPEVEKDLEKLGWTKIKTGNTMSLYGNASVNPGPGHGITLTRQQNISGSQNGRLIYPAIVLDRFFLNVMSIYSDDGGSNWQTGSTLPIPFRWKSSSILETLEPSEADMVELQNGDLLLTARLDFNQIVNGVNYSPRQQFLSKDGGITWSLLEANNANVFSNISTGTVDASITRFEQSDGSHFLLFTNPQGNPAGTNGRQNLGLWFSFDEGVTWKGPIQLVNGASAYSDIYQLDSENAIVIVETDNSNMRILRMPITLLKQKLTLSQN

With `CCOC(=O)C1=C[C@@H](OC(CC)CC)[C@H](NC(C)=O)[C@@H](N)C1` [Oseltamivir] as the compound, how does the “Inhibitory activity against SpNanC” value (SpNanC [1]; concentration up to 7.5 mM) read?
The value was “did not show inhibitory activity”.

What about the “Inhibitory activity against SpNanB” value (SpNanB [2]; concentration up to 7.5 mM) of the same compound?
Its value is “did not show inhibitory activity”.

What about the “Inhibition of RgNanH” value (IT-sialidase RgNanH) of the same compound?
The value was “inhibited”.

Which “IC50 against SpNanC” value (SpNanC [1]) does the source give for `O=C(CCCCCCCCc1ccc(O)c(O)c1)c1c(O)cccc1O` [malabaricone C] here?
Its value is “submicromolar range”.

What about the “IC50 against SpNanA” value (SpNanA [3]) of the same compound?
The value was “submicromolar range”.

And the “IC50 against SpNanB” value (SpNanB [2])?
The value was “submicromolar range”.

For `O=S(=O)(O)CCNC1CCCCC1` [CHES, 2-N-Cyclohexylaminoethanesulfonic acid], which “Inhibition against SpNanB” value (SpNanB [2]) is on record?
The value was “weak inhibition”.

Which “Hydrolysis by SpNanB” value (SpNanB [4]) does the source give for `CC(=O)N[C@H]1[C@H]2O[C@@](C(=O)O)(C[C@@H]1O)O[C@@H]2[C@H](O)CO` [compound 1, 5-Acetamido-2,7-anhydro-3,5-dideoxy-α-D-glycero-D-galacto-non-2-ulopyranosonic acid] here?
The value was “can be hydrolyzed by SpNanB; also recorded: most 2,7-anhydro-Neu5Ac (1) was converted to Neu5Ac”.

What about the “Inhibition against any sialidases tested” value [5] of the same compound?
Its value is “no significant inhibition”.

With `COc1cc2oc(-c3ccc(O)cc3O)c(CC=C(C)C)c(=O)c2c(O)c1/C=C/C(C)C` [artocarpin] as the compound, how does the “Inhibition against SpNanB” value (SpNanB [2]) read?
Its value is “reported to be inhibitors”.

Which “Inhibition against any sialidases tested” value [5] does the source give for `N[C@H]1[C@H]2O[C@@](C(=O)O)(C[C@@H]1O)O[C@@H]2[C@H](O)CO` [compound 3, 5-Amino-2,7-anhydro-3,5-dideoxy-α-D-glycero-D-galacto-non-2-ulopyranosonic acid] here?
Its value is “no significant inhibition”.

For `O=C(N[C@H]1[C@H]2O[C@@](C(=O)O)(C[C@@H]1O)O[C@@H]2[C@H](O)CO)C1CCCCC1` [compound 4, 2,7-Anhydro-5-cyclohexylamido-3,5-dideoxy-α-D-glycero-D-galacto-non-2-ulopyranosonic acid], which “Hydrolysis by SpNanB” value (SpNanB [4]) is on record?
The value was “resistant to SpNanB hydrolysis; also recorded: remained intact”.

And the “Inhibitory activity against SpNanA” value (SpNanA [6])?
Its value is “noticeable inhibitory activity”.

And the “Inhibitory activity against SpNanC” value (SpNanC [7]; inhibitor 1 mM)?
The value was “noticeable inhibitory activity”.

What about the “Inhibitory activity against SpNanB” value (SpNanB [8]) of the same compound?
The value was “noticeable inhibitory activity”.

Which “Inhibitory activity against SpNanA” value (SpNanA [6]) does the source give for `O=C(N[C@H]1[C@H]2O[C@@](C(=O)O)(C[C@@H]1O)O[C@@H]2[C@H](O)CO)C(F)(F)F` [compound 2, 2,7-Anhydro-3,5-dideoxy-5-trifluoroacetamido-α-D-glycero-D-galacto-non-2-ulopyranosonic acid] here?
The value was “some inhibitory activity”.

What about the “Inhibitory activity against AuSialidase” value (AuSialidase) of the same compound?
The value was “some inhibitory activity”.

What about the IC50 (VcSialidase) of the same compound?
The IC50 was 500 to 1000 µM.

What about the “Inhibitory activity against VcSialidase” value (VcSialidase; inhibitor 1 mM) of the same compound?
Its value is “some inhibitory activity”.

And the IC50 (SpNanC [7])?
The IC50 was greater than 1000 µM.

What about the IC50 (SpNanB [8]) of the same compound?
Its IC50 is 250 to 500 µM.

What about the “Inhibitory activity against SpNanB” value (SpNanB [8]) of the same compound?
The value was “some inhibitory activity”.

With `O=C(CCc1ccccc1)C[C@@H]1C[C@@H](c2ccccc2)c2c(cc(/C=C/c3ccccc3)oc2=O)O1` [katsumadain A] as the compound, how does the “Inhibition against SpNanB” value (SpNanB [2]) read?
Its value is “reported to be inhibitors”.

What does the source list for `CC(=O)N[C@H]1[C@H]([C@H](O)[C@H](O)CO)OC(C(=O)O)=C[C@@H]1O` [Neu5Ac2en, 2,3-dehydro-2-deoxy-N-acetylneuraminic acid]?
IC50 against SpNanC (SpNanC [1]): submillimolar range; Inhibition against SpNanB (SpNanB [2]; other reports): millimolar inhibitor
